Article PMC3377608, “The IkappaB Kinase Family Phosphorylates the Parkinson’s Disease Kinase LRRK2 at Ser935 and Ser910 during Toll-Like Receptor Signaling” (PLoS ONE, 2012)

Target: T1, TAK1 (Homo sapiens, UniProt O43318)
T1 construct: gene MAP3K7
T1 sequence (O43318 1-303): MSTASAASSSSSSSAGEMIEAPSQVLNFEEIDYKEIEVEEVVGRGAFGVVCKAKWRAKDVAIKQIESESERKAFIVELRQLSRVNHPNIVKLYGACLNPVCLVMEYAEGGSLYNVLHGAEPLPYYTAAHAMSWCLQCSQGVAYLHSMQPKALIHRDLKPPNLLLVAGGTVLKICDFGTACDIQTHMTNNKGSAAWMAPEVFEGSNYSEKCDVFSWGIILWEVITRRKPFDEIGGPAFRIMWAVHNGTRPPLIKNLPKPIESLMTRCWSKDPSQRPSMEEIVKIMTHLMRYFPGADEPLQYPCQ
T1 sequence (Q15750 437-504 partner): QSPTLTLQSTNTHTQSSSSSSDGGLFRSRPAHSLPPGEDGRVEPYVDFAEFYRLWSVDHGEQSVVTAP
Assay: in vitro kinase inhibition (IC50); selectivity profiled by KiNativ, Ambit and radioactive filter binding panels
Assay type: biochemical

SMILES: CCN1CCN(Cc2ccc(NC(=O)c3ccc(C)c(Oc4ccnc5[nH]ccc45)c3)cc2C(F)(F)F)CC1 [NG25]
- IC50: 4 nM
